# Tests used:
# [1] = system: FUT7 promoter; test: Targeted Next-Gen bisulfite sequencing of the FUT7 promoter region in KG1 cells; assay type: cell-based, human; settings: dose and time dependent
# Description: To test whether the increased expression of FUT7 mRNA in KG1 cells treated with 5-AZA could be due to hypomethylation of the FUT7 promoter, targeted Next-Gen bisulfite sequencing of the FUT7 promoter region was performed. The methylation status of 101 CpG sites surrounding the transcription start site was determined. […] Cells were collected after 96 hours of treatment and cell pellets were prepared. Extracted DNA samples (500 ng) were bisulfite modified using the EZ-96 DNA Methylation-Direct Kit™ (ZymoResearch; Irvine, CA; Catalog No. D5023) per the manufacturer's protocol with minor modification. The bisulfite modified DNA samples were eluted using M-elution buffer in 46 μL. Following DNA extraction and bisulfite modification, 26 regions surrounding the transcription start site were evaluated by PCR/NGS to assess the methylation status of 101 CpG sites. All bisulfite modified DNA samples were amplified using separate multiplex or simplex PCRs. PCRs included 0.5 units of HotStarTaq (Qiagen; Hilden, Germany; Catalog No. 203205), 0.2 μM primers, and 3 μL of bisulfite-treated DNA in a 20 μL reaction.
# [2] = biological target: T1, E-selectin (Homo sapiens, UniProt P16581); test: Compound A binding to E-selectin (KD)
# T1 sequence (P16581 22-610): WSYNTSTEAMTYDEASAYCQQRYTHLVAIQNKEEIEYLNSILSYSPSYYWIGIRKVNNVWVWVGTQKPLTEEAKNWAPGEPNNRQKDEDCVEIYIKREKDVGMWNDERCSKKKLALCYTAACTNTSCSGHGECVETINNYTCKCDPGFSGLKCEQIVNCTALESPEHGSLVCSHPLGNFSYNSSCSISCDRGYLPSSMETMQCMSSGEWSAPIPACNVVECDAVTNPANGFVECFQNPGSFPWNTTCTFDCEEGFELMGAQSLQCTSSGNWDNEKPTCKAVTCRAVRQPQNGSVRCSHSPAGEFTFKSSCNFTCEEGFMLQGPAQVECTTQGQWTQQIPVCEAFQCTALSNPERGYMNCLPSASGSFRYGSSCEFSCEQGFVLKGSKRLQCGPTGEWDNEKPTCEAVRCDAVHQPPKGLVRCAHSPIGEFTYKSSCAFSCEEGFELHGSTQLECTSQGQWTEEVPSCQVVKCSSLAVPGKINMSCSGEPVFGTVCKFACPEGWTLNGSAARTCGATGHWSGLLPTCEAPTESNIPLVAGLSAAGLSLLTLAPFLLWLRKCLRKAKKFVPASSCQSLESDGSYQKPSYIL
# [3] = system: human MSC; test: CD44 surface expression in MSC exposed to soluble E-selectin; assay type: cell-based; settings: MSC in vitro
# Description: To determine if E-selectin has indispensable effects in bone marrow niche component cells, healthy donor derived-mesenchymal stroma cells (MSC) were exposed to increasing concentrations of E-selectin. […] Abrogation of E-selectin binding by Compound A diminished CD44 expression in vitro.
SMILES,methylation of CpG sites of the FUT7 promoter region [1],Kd [2],CD44 expression [3]
Nc1ncn([C@@H]2O[C@H](CO)[C@@H](O)[C@H]2O)c(=O)n1 [5-azacitidine],demethylation,–,–
CCC1CC(C(=O)NCCNC(=O)CCOCCOCCOCCOCCOCCOCCOCCOCCOCCOCCOCCOC)C[C@@H](O[C@@H]2OC(CO)[C@H](O)C(O[C@@H](CC3CCCCC3)C(=O)O)C2NC(C)=O)[C@@H]1OC1O[C@@H](C)[C@H](O)C(O)[C@@H]1O (stereo partly drawn) [Compound A],–,~0.45 µM,diminished
